In US11708318B2, “Polymorphic forms of RAD1901-2HCL” (Radius Pharmaceuticals, Inc., priority 2017, dated 2023):

Assays:
[1] = Gravimetric Vapour Sorption (GVS), with XRPD of the recovered sample; format: physicochemical
Experimental: Sorption isotherms were obtained using a SMS DVS Intrinsic moisture sorption analyzer, controlled by DVS Intrinsic Control software v1.0.1.2 (or v 1.0.1.3). The sample temperature was maintained at 25° C. by the instrument controls. The humidity was controlled by mixing streams of dry and wet nitrogen, with a total flow rate of 200 ml/min. The relative humidity was measured by a calibrated Rotronic probe (dynamic range of 1.0-100% RH), located near the sample. The weight change, (mass relaxation) of the sample as a function of % RH was constantly monitored by the microbalance (accuracy ±0.005 mg).
A sample (e.g., 20 mg) was placed in a tared mesh stainless steel basket under ambient conditions. The sample was loaded and unloaded at 40% RH and 25° C. (typical room conditions). A moisture sorption isotherm was performed as outlined below (2 scans giving 1 complete cycle). Standard isotherms were performed at 25° C. at 10% RH intervals over a 0-90% RH range. Data analysis was carried out using Microsoft Excel using DVS Analysis Suite v6.2 (or 6.1 or 6.0).
In a cycle of 2 scans, the first scan was performed with adsorption of 40-90% RH, followed by a second scan with desorption of 90-0% RH and adsorption of 0-40% RH, with intervals of 10% RH, at 25° C. with stability dm/dt of 0.002% ° C./min. The sorption time was 6 hr time out.
The sample was recovered after completion of the isotherm and re-analyzed by XRPD. Custom moisture sorption methods were also performed at 25° C. at fixed % RH intervals over a 0-95% RH range, with the purpose to fully understand the sorption/desorption behavior of the compound under elevated conditions.
To further explore the humidity behavior of Sample 1 (Form 1) upon exposure to high RH (>90%), custom GVS experiments were designed and carried out. Initially, the sample was treated by holding at 90 and then 95% RH for ˜12 hours to see if hydrate formation could be observed (HighRH method of Steps 1 and 2 of Table 2, FIGS. 6C-6D).
To test the stability of the hydrated state, GVS method HighRH_Desorp_3 was designed with a desorption step and subsequent adsorption (see Table 2 with steps 1-4, FIGS. 6E-6F).
Finally, to ensure complete conversion to the anhydrous and hydrated forms, a GVS experiment was designed to increase both the length of the desorption step at 0% RH, and the adsorption step at 95% RH, respectively (Table 3). Based on the weight stabilization observed in the kinetic plots for Sample 1 in HighRH and HighRH_Desorp_3 methods discussed above (FIGS. 6D and 6F), a holding time of 800 mins at 0% RH and 1600 mins at 95% RH were chosen. A double cycle was also recorded for this experiment to observe whether the sample would return to Form 1 or form a mixed anhydrous/hydrated species (see Table 3, FIGS. 6G-6H).

[2] = Solubility assessment of Sample 1 (majorly Form 1) in 24 solvent systems; format: physicochemical

GVS uptake 0-90% RH ([1]; 25° C., 0-90% RH): 1.8% wt.
GVS uptake when held at 95% RH ([1]; HighRH method, held at 95% RH for ~12 hours): 5-6 % wt.
XRPD post GVS (HighRH_DoubleCycle_2 method) ([1]; double cycle, 1600 mins at 95% RH, 800 mins at 0% RH): formation of the hydrate (Form 3)
XRPD post GVS (HighRH_Desorp_3 method) ([1]; single cycle: to 95% RH, desorption to 0% RH, adsorption 0-40% RH): mixture of Form 1 and Form 3
Solubility in alcohols, esters, and hydrocarbon solvents ([2]; alcohols, esters, hydrocarbon solvents): low solubility
Solubility in t-butanol/water (1:1) ([2]; t-butanol/water (1:1)): high solubility
SMILES: CCNCCc1ccc(CN(CC)c2cc(OC)ccc2[C@@H]2CCc3cc(O)ccc3C2)cc1.Cl.Cl [Sample 1]
Solid form on exposure to high RH (>90%) by GVS ([1]; above 90% RH): irreversibly converted to a hydrate (Form 3)
XRPD post GVS (HighRH method) ([1]; held at 90 and then 95% RH for ~12 hours): mixture of states or incomplete conversion
